Results as given in US20230131025A1, “QUINOLYL PHOSPHINE OXIDE COMPOUND, AND COMPOSITION AND APPLICATION THEREOF” (Betta Pharmaceuticals Co., Ltd., priority 2020, published 2023).

Experiments:
EGFR Δ19del/T790M/C797S = EGFR Δ19del/T790M/C797S (Homo sapiens, UniProt P00533, T790M/C797S, form not given); assay: Kinase inhibition assay (mobility shift); format: biochemical
Protocol: (§1) Experiment 1 Kinase Inhibition Assay Mobility shift assays were performed to determine inhibitory activity of compounds against EGFR^Δ19del/T790M/C797S, EGFR WT and IGF1R kinases. The enzymatic reaction scheme is as follows:
(§2) 1. Preparing 1*Kinase Buffer as follows:
(§3) 2. Preparing compound concentration gradient: the initial concentration of the compound tested in the assay was 3,000 nM or 100 nM, which is then diluted to be 100-fold final concentration in 100% DMSO in a 384-source plate. Compounds in 10 concentrations were diluted in a 3-fold gradient with Precision. 250 nL of compound in 100-fold final concentration was transferred to OptiPlate-384F plate by using a dispenser named Echo 550.
(§4) 3. Preparing kinase solution at 2.5-fold the final concentration with 1×kinase buffer.
(§5) 4. Adding 10 μL of kinase solution at 2.5-fold the final concentration to compound wells and positive control wells respectively; and adding 10 μL of 1×kinase buffer to negative control wells.
(§6) 5. Centrifuging the wells at 1,000 rpm for 30 seconds, mixing the reaction plate well by shaking and incubating it at room temperature for 10 minutes.
(§7) 6. Preparing a mixed solution of ATP and kinase substrate at 5-fold/3-fold the final concentration with 1×Kinase buffer, respectively.
(§8) 7. Initiating the reaction by adding 15 μL of the mixed solution of ATP and kinase substrate at 5-fold/3-fold the final concentration.
(§9) 8. Centrifuging the 384-well plate at 1,000 rpm for 30 seconds, mixing the reaction plate well by shaking and incubating it at room temperature for a corresponding time.
(§10) 9. Adding 30 μL of assay stop solution to stop the kinase reaction, and centrifuging the plate at 1,000 rpm for 30 seconds and mixing it well by shaking.
(§11) 10. Reading the conversion rate with Caliper EZ Reader.
(§12) [formula] • wherein, “Conversion % sample” is the conversion rate reading of the sample;
(§13) “Conversion %_min” is the mean value of the negative control wells, representing the conversion rate readings of the well without enzymatic activity; “Conversion %_max” is the mean value of the positive control wells, representing the conversion rate readings of the wells without compound inhibition. • Dose-response curve is plotted with the logarithmic concentration on the X-axis and percent inhibition on the Y-axis. The fitting of the dose-response curve is made with the module “log(inhibitor) vs. response—Variable slope” of the analysis software GraphPad Prism 5, so that the IC50 value of each compound on enzymatic activity is obtained. • The calculation formula is: Y=Bottom+(Top−Bottom)/(1+10^((Log IC50−X)*HillSlope)).

IGF1R = IGF1R (Homo sapiens, UniProt P08069); assay: Kinase inhibition assay (mobility shift); format: biochemical
Protocol: as §1, §2, §3, §4, §5, §6, §7, §8, §9, §10, §11, §12, §13

EGFR WT = EGFR WT (Homo sapiens, UniProt P00533); assay: Kinase inhibition assay (mobility shift); format: biochemical
Protocol: as §1, §2, §3, §4, §5, §6, §7, §8, §9, §10, §11, §12, §13

Ba/F3-Δ19del/T790M/C797S = Ba/F3-Δ19del/T790M/C797S (Homo sapiens, UniProt P00533, T790M/C797S, cells depend on it, form not given); assay: Cell proliferation experiment (CellTiter Glo, 72 hours); format: cell-based; settings: read-out: Ba/F3/EGFR Δ19del/T790M/C797S IC50
Protocol: (§14) Experiment 2 Cell Proliferation Experiment
(§15) Suspension cells: Ba/F3 cells with stable overexpression of Δ19del/T790M/C797S mutant gene, named Ba/F3-Δ19del/T790M/C797S; Ba/F3 cells with overexpression of EGFR WT, named Ba/F3 EGFR WT.
(§16) RPMI 1640 with 10% FBS and 1% Penicillin-Streptomycin, or DMEM with 10% FBS and 1% Penicillin-Streptomycin.
(§17) a) Diluting compounds being tested (20 mM stock solutions), as an initial concentration, to 10 mM with 100% DMSO, followed by diluting compounds serially in a 3-fold gradient such that each compound is diluted into 12 concentrations (Cat #P-05525, Labcyte).
(§18) b) Diluting the above compound solutions for 100-fold with culture medium to prepare 10-fold working solution.
(§19) b) Seeding cells into 96-well cell culture plate at a density of 2000 or 3000 cells/well, with 135 μL/well.
(§20) a) Adding the compound prepared in step 2 to the cell plate at 15 μL per well, resulting in a final maximum concentration of 10000 nM or 1111 nM. The compounds is diluted serially in a 3-fold gradient such that each compound is diluted into 9 concentrations, wherein the final concentration of DMSO is 0.1%. Blank control wells are added with medium (0.1% DMSO).
(§21) b) Re-incubating the cells in an incubator for 72 hours. 5. Detection
(§22) a) Adding 50 μL of CTG reagent (CellTiter Glo kit, promega, Cat #G7573) to the 96-well cell culture plate.
(§23) b) Shaking the plate for 2 minutes and reacting at room temperature for 10 minutes.
(§24) c) Reading the luminescence signal value (Lum) using PerkinElmer reader.
(§25) The cell survival inhibition rate of each well was calculated. The data was analyzed by GraphPad Prism 6.0 software. The dose-response curve was obtained by fitting the data with a nonlinear regression equation. The IC50 of each compound was calculated as follows:
(§26) Cell survival inhibition rate (%)=(1−(Lumcompound tested−Lummedium control)/(Lumcell control−Lummedium control))×100%
(§27) Y=Min+(Max−Min)/(1+10^((Log IC50−X)*Slope));
(§28) X: logarithm of compound concentration. Y: cell survival inhibition rate.

Ba/F3 EGFR WT = Ba/F3 EGFR WT (Homo sapiens, UniProt P00533); assay: as above; format: cell-based; settings: read-out: BaF3 EGFR WT IC50
Protocol: as §14, §15, §16, §17, §18, §19, §20, §21, §22, §23, §24, §25, §26, §27, §28

[1] = test system: human epidermal cancer cells A431 carrying EGFR WT; assay: as above; format: cell-based; settings: Homo sapiens, A-431
Protocol: as §14
Adherent cells: human epidermal cancer cells A431 carrying EGFR WT.
as §16, §17, §18, §19, §20, §21, §22, §23, §24, §25, §26, §27, §28

Chain of EGFR Δ19del/T790M/C797S (P00533 with tags, fused parts or gaps DEL746-750/T790M/C797S, form open): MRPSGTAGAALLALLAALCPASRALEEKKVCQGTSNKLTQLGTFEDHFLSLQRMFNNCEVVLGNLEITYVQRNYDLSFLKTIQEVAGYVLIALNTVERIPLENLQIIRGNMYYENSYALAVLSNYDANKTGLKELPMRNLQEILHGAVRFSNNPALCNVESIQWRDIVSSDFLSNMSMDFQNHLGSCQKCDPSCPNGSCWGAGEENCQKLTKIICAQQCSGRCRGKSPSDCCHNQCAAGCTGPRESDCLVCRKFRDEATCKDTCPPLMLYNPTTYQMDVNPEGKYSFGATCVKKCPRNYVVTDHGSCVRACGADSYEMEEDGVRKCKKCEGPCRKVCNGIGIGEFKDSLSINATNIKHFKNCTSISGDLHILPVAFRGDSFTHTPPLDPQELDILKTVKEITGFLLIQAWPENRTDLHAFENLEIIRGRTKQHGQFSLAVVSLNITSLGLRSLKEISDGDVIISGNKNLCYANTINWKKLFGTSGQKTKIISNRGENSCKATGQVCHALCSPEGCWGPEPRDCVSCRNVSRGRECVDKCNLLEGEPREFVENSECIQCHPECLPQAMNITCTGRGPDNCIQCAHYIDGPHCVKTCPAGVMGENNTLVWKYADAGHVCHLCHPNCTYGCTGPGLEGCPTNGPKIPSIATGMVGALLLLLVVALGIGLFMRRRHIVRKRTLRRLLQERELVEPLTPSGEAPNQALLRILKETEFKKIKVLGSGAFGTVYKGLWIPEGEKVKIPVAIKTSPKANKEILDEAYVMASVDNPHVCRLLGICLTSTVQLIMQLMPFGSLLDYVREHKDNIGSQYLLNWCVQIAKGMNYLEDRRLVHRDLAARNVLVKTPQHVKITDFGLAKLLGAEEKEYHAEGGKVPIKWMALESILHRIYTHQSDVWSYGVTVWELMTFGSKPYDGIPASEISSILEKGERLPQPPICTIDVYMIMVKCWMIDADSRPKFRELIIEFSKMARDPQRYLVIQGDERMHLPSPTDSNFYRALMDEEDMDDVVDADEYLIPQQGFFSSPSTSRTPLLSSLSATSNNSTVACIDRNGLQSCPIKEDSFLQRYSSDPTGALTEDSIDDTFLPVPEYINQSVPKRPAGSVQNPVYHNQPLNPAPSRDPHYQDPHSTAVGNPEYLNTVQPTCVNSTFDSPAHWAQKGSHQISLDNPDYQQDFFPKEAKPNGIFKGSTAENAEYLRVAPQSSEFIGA
Chain of Ba/F3-Δ19del/T790M/C797S (P00533 with tags, fused parts or gaps DEL746-750/T790M/C797S, form open): as above
Chain of EGFR WT (P00533 25-1210): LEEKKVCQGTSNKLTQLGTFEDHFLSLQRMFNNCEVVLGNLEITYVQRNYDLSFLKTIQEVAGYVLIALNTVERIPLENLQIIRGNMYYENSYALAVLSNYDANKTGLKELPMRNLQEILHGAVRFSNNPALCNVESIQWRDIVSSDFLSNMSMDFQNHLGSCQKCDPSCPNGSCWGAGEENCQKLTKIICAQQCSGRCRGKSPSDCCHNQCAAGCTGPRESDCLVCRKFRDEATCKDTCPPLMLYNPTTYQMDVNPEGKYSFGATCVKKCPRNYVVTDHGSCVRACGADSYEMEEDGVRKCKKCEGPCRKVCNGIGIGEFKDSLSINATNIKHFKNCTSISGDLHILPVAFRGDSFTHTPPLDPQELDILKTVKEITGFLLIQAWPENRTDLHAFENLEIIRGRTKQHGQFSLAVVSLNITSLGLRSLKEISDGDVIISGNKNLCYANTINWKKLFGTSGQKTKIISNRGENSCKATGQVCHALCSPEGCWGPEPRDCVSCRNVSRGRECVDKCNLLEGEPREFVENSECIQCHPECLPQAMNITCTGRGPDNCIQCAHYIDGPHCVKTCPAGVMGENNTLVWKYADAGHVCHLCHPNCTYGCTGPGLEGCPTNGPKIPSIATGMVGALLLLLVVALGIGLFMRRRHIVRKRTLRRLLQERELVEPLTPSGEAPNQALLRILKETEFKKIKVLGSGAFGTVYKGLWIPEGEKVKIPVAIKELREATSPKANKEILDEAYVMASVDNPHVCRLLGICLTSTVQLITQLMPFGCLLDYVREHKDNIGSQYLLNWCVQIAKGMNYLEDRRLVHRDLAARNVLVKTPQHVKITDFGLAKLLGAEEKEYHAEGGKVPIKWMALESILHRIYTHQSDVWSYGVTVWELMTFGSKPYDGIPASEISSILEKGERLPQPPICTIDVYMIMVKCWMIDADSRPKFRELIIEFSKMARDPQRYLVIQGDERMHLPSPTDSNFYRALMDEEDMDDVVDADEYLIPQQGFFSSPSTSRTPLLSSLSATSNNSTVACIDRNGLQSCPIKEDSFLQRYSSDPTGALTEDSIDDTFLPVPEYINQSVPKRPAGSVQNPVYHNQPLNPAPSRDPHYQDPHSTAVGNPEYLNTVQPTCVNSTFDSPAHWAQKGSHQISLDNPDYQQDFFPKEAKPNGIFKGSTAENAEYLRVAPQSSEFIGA
Chain of Ba/F3 EGFR WT (P00533 whole entry, change not shown): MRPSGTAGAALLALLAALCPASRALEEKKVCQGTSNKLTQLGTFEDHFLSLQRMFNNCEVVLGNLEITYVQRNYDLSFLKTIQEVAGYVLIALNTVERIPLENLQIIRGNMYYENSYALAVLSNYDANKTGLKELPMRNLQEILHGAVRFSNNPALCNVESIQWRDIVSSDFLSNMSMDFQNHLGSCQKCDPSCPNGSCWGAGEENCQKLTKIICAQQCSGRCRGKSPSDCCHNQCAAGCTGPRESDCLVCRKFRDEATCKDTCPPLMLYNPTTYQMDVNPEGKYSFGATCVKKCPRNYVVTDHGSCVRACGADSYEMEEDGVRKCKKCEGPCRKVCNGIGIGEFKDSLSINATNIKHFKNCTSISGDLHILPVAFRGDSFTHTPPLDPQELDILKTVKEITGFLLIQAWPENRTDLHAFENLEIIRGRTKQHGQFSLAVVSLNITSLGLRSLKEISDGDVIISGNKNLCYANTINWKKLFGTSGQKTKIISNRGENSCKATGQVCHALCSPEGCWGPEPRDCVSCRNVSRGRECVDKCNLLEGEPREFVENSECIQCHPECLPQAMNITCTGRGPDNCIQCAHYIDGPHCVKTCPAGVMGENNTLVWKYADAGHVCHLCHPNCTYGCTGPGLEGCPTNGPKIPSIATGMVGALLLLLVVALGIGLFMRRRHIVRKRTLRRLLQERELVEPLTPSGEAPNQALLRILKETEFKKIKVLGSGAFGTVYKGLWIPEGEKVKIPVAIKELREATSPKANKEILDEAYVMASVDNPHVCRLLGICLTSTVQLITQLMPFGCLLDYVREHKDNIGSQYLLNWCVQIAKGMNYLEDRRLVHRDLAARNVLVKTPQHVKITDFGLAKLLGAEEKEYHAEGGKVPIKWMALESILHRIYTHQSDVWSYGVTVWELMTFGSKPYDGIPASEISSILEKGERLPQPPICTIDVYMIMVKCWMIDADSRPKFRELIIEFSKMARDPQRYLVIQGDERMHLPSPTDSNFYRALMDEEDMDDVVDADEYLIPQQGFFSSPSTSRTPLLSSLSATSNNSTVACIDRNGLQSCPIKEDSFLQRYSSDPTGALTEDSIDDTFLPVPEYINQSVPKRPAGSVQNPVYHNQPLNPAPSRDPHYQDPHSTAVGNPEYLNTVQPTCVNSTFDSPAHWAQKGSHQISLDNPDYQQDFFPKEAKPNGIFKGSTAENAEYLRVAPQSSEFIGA

Row | IC50 (EGFR Δ19del/T790M/C797S) [nM] | IC50 (IGF1R) [nM] | IC50 (EGFR WT) [nM] | GI50 (Ba/F3-Δ19del/T790M/C797S) [nM] | GI50 (Ba/F3 EGFR WT) [nM] | IC50 [1] [nM] | Structure (SMILES)
1 | 0.5 | 103 | 64 |  |  |  | CCc1cc(N2CCC(N3CCN(C)CC3)CC2)c(OC)cc1Nc1ncc(Br)c(Nc2ccc3nc(C4CC4)ccc3c2P(C)(C)=O)n1 [Compound J-031, (6-((5-Bromo-2-((2-ethyl-5-methoxy-4-(4-(4-methylpiperazin-1-yl)piperidin-1-yl)phenyl)amino)pyrimidin-4-yl)amino)-2-cyclopropylquinolin-5-yl)dimethylphosphine oxide]
2 | 0.33 | 222 | 16 |  |  |  | COc1cc(N2CCC(N3CCN(C)CC3)CC2)c(F)cc1Nc1ncc(Br)c(Nc2ccc3nc(C4CC4)ccc3c2P(C)(C)=O)n1 [Compound J-019, (6-((5-Bromo-2-((5-fluoro-2-methoxy-4-(4-(4-methylpiperazin-1-yl)piperidin-1-yl)phenyl)amino)pyrimidin-4-yl)amino)-2-cyclopropylquinolin-5-yl)dimethylphosphine oxide]
3 | 0.4 | 720 | 62.8 |  |  |  | COc1cc(N2CCOCC2)c(C#N)cc1Nc1ncc(Br)c(Nc2ccc3nc(C4CC4)ccc3c2P(C)(C)=O)n1 [Compound J-002, 5-((5-Bromo-4-((2-cyclopropyl-5-(dimethylphosphineoxide)quinolin-6-yl)amino)pyrimidin-2-yl)amino)-4-methoxy-2-morpholinebenzonitrile]
4 |  | 210 | 138 |  |  |  | COc1cc(N2CCN(C3CCCC3)CC2)c(C)cc1Nc1ncc(Br)c(Nc2ccc3nc(C4CC4)ccc3c2P(C)(C)=O)n1 [Compound J-037, (6-((5-Bromo-2-((4-(4-cyclopentylpiperazin-1-yl)-2-methoxy-5-methylphenyl)amino)pyrimidin-4-yl)amino)-2-cyclopropylquinolin-5-yl)dimethylphosphine oxide]
5 | 0.9 | 586 | 171 |  |  |  | COc1cc(N2CCN(C3CC3)CC2)c(C)cc1Nc1ncc(Br)c(Nc2ccc3nc(C4CC4)ccc3c2P(C)(C)=O)n1 [Compound J-038, (6-((5-Bromo-2-((4-(4-cyclopropylpiperazin-1-yl)-2-methoxy-5-methylphenyl)amino)pyrimidin-4-yl)amino)-2-cyclopropylquinolin-5-yl)dimethylphosphine oxide]
6 | 1 | 170 | 121 |  |  |  | COc1cc(N2CCN(C3CCCC3)CC2)c(C)cc1Nc1ncc(Br)c(Nc2ccc3nc(C4CC4)ccc3c2P(C)(C)=O)n1 [Compound J-032, (6-((5-Bromo-2-((4-(4-cyclopentylpiperazin-1-yl)-2-methoxy-5-methylphenyl)amino)pyrimidin-4-yl)amino)-2-cyclopropylquinolin-5-yl)dimethylphosphine oxide]
7 |  |  |  | 1 | 33.2 | 201 | COc1cc(N2CCC(N3CCN(C)CC3)CC2)c(-c2cnn(C)c2)cc1Nc1ncc(Br)c(Nc2ccc3nc(C4CC4)ccc3c2P(C)(C)=O)n1 [Compound J-068, (6-((5-Bromo-2-((2-methoxy-5-(1-methyl-1H-pyrazol-4-yl)-4-(4-(4-methylpiperazine-1-yl)piperidin-1-yl)phenyl)amino)pyrimidin-4-yl)amino)-2-cyclopropylquinolin-5-yl)dimethylphosphine oxide]
8 |  |  |  | 8.5 | 109 | 2300 | COc1cncc(N2CCN(c3cc(OC)c(Nc4ncc(Br)c(Nc5ccc6nc(C7CC7)ccc6c5P(C)(C)=O)n4)cc3-c3cnn(C)c3)CC2)n1 [Compound J-049, (6-((5-Bromo-2-((2-methoxy-4-(4-(6-methoxypyrazin-2-yl)piperazin-1-yl)-5-(1-methyl-1H-pyrazol-4-yl)phenyl)amino)pyrimidin-4-yl)amino)-2-cyclopropylquinolin-5-yl)dimethylphosphine oxide]
9 |  |  |  | 12.9 | 611 | > 10000 | COc1cc(Nc2ncc(Br)c(Nc3ccc4nc(C5CC5)ccc4c3P(C)(C)=O)n2)c(C)cc1N1CCC(OC)CC1 [Compound J-033, (6-((5-Bromo-2-((5-methoxy-4-(4-methoxypiperidin-1-yl)-2-methylphenyl)amino)pyrimidin-4-yl)amino)-2-cyclopropylquinolin-5-yl)dimethylphosphine oxide]
10 |  |  |  | 5.8 | 117 | 649 | COc1cc(N2CCN(c3cnccn3)CC2)c(-c2cnn(C)c2)cc1Nc1ncc(Br)c(Nc2ccc3nc(C4CC4)ccc3c2P(C)(C)=O)n1 [Compound J-058, (6-((5-Bromo-2-((2-methoxy-5-(1-methyl-1H-pyrazol-4-yl)-4-(4-(pyrazin-2-yl)piperazin-1-yl)phenyl)amino)pyrimidin-4-yl)amino)-2-cyclopropylquinolin-5-yl)dimethylphosphine oxide]
11 |  |  |  | 2.4 | 37.3 | 632 | COc1cc(N2CCC(N3CCN(C)CC3)CC2)c(-c2cnn(C(F)F)c2)cc1Nc1ncc(Br)c(Nc2ccc3nc(C4CC4)ccc3c2P(C)(C)=O)n1 [Compound J-067, (6-((5-bromo-2-((5-(1-(difluoromethyl)-1H-pyrazol-4-yl)-2-methoxy-4-(4-(4-methylpiperazin-1-yl)piperidin-1-yl)phenyl)amino)pyrimidin-4-yl)amino)-2-cyclopropylquinolin-5-yl)dimethylphosphine oxide]
12 |  |  |  | 0.8 | 15.8 | 143 | COc1cc(N2CCN(C)CC2)c(-c2cnn(C)c2)cc1Nc1ncc(Br)c(Nc2ccc3nc(C4CC4)ccc3c2P(C)(C)=O)n1 [Compound J-054, (6-((5-Bromo-2-((2-methoxy-5-(1-methyl-1H-pyrazol-4-yl)-4-(4-methylpiperazin-1-yl)phenyl)amino)pyrimidin-4-yl)amino)-2-cyclopropylquinolin-5-yl)dimethylphosphine oxide]
13 |  |  |  | 1 | 25.2 | 432 | COc1ncc(N2CCN(c3cc(OC)c(Nc4ncc(Br)c(Nc5ccc6nc(C7CC7)ccc6c5P(C)(C)=O)n4)cc3-c3cnn(C)c3)CC2)cn1 [Compound J-044, (6-((5-Bromo-2-((2-methoxy-4-(4-(2-methoxypyrimidin-5-yl)piperazin-1-yl)-5-(1-methyl-1H-pyrazol-4-yl)phenyl)amino)pyrimidin-4-yl)amino)-2-cyclopropylquinolin-5-yl)dimethylphosphine oxide]
